Data set [1] deals with Porcine aortic endothelial cells. As to conditions: 25 mg/ml, in words; cited from earlier work.
Data set [2] relates to clot formation induced by API in human blood. The conditions noted are these: for Clot formation / clotting time versus no additives: 0.01 and 0.1 mg/ml, in words. On the procedure: Blood was drawn from four healthy volunteers into Vacutainer™ tubes containing citrate. Whole blood (980 μl) was incubated with 2 μl of API at 37° C. in polypropylene sample cups in a ReoRox™ rheometer (Global Haemostasis International, Gothenburg, Sweden). […] Every 6 s, the cup was set into free torsional oscillation around its vertical axis, and the damping and frequency of the oscillation was registered. Clotting time was identified as the point of maximal damping.

For data set [3], the system named is IBMIR triggered by API in fresh human blood. As to conditions: 1 mg/ml, 60 min API perfusion. On the procedure:
This protocol is basically performed as previously described with some modifications. In general words, loops made of PVC (diameter 6.3 mm, length 390 mm), whose inner surface was furnished with immobilized heparin, were used. The tubing was held together with a specially designed heparinized connector. A circular loop was formed when the ends of the connector were tightly pushed into the lumen of the tubing ends. A rocking apparatus, placed in a 37° C. incubator, was used to generate blood flow inside the loops. The loops were rocked at a setting that prevented the blood from coming in contact with the connectors.
Seven 60-min islet experiments were performed, using API isolated from four different pigs. […] For each experiment, one loop containing fresh human blood and saline without API was included as a control. […] Concurrently, pre-incubation of human blood with 1 mg/ml of LMW-dextran, which was not sulfated, was tested in five experiments. In each experiment, 7 ml of fresh human blood from the same donor was added to each loop. […] Thereafter, the loops were opened, and 100 μl of saline with or without 5 μl of API (approximately 5,000 IEQ) was added to the loops and followed by another 60-min incubation on the rocking device at 37° C. Blood glucose levels were measured with a glucometer (Glucometer Elite; Bayer Diagnostics, Leverkusen, Germany) before the perfusion.
After every perfusion, the loop contents were filtered through 70 μm-diameter filters (Filcons, Cuptype; DAKO, Denmark). Both macroscopic blood clots and tissue recovered on the filters were snap-frozen in isopentane for immunohistochemical staining. The remaining filtered blood was collected in 4.1 mM EDTA (final concentration) and used for hematological analysis (platelets, lymphocytes, monocytes, and granulocytes) and assays of coagulation activation (thrombin-antithrombin [TAT], factor XIa-antithrombin complexes [FXIa-AT], and factor XIIa-antithrombin complexes [FXIIa-AT]), fibrinolysis activation (plasmin-alpha 2 antiplasmin complexes [PAP]), complement activation (C3a and sC5b-9), and C1 esterase inhibitor activation (factor XIa-C1 esterase inhibitor [FXIa-C1 INH], factor XIIa-C1 esterase inhibitor [FXIIa-C1 INH]). Samples taken at 0, 15, and 30 min were also analyzed. In 0-min samples, the blood was not added to the tubing loop but was instead transferred immediately to the EDTA-containing tubes. The blood samples were centrifuged at 4° C. at 3290×g for 20 min, and the plasma was collected and stored at −70° C. until analyzed.
Platelet counts and differential leukocyte counts were analyzed on a Coulter ACT-diff analyzer (Beckman Coulter, Fla., USA) using EDTA-treated blood. TAT and PAP were quantified using commercially available enzyme immunoassays (EIA) kits (Enzygnost TAT, Behringswerke, Marburg, Germany; Imuclone® PAP, American Diagnostica Inc., Greenwich, USA). FXIa-AT, FXIIa-AT, FXIa-C1 INH, and FXIIa-C1 INH were analyzed according to the method of Sanchez et al.. C3a was analyzed as previously described by Nilsson Ekdahl et al., and sC5b-9 was analyzed using a modification of the EIA described by Mollnes et al..

Data set [4] concerns STZ-induced diabetic mice. The conditions noted are these: intraperitoneal, intrahepatic islets, in words; cited from earlier work.
In data set [5] the test system is pig lungs. The conditions noted are these: 2 mg/ml; HAR after 30 min without; cited from earlier work.
For data set [6] the following is noted: cited from earlier work.
Setting [7] is: continuous injection about 45 mg/hour, in words.

Like-named read-outs stand apart in the source and are kept apart here. A value given as a limit tells only on which side of the number the result lay.

In the case of CMDB25 dextran sulfate, in data set [1], the “Complement activation and cytolytic complex deposition on the cells” value was “inhibited”.

For the substance “High molecular weight dextran sulfate [HMW-DS]”, in data set [2], the “Clot formation / clotting time versus no additives” value is “inhibited clot formation only at 0.1 mg/ml”. The Clotting time in data set [2] (experiment 1, 0.01 mg/ml) is reported as 15.8 min; in data set [2] (experiment 1, 0.1 mg/ml), over 60 min; in data set [2] (experiment 2, 0.01 mg/ml), 36.9 min; in data set [2] (experiment 2, 0.1 mg/ml), over 60 min; in data set [2] (experiment 3, 0.01 mg/ml), 21.0 min; in data set [2] (experiment 3, 0.1 mg/ml), over 60 min. For the same substance, the Clotting time in data set [2] (experiment 4, 0.01 mg/ml) is on record as 38.3 min; in data set [2] (experiment 4, 0.1 mg/ml) it was over 60 min.

As to “Low molecular weight dextran [LMW-D, reference compound]”, the “Effect on IBMIR” value in data set [3] (in words) was “only a marginal effect”. Also, in data set [3] (Table 4 comparison, n = 5), the “C3a” value was determined as 1490.3 ± 406.4 ng/mL, the “FXIa-AT” value stood at 1.09 ± 0.08 µmol/L, the “Granulocytes (×10^9/l)” value is recorded as 1.90 ± 0.43 ×10^9/l and the “Lymphocytes (×10^9/l)” value was 2.14 ± 0.32 ×10^9/l. Moreover, in data set [3] (Table 4 comparison, n = 5), the “Monocytes (×10^9/l)” value is 0.29 ± 0.08 ×10^9/l, the “Platelets (×10^9/l)” value was 44.9 ± 18.7 ×10^9/l, the “TAT” value came out at 4429.2 ± 2002.5 µg/mL and the “sC5b-9 (AU/ml)” value came to 157.3 ± 19.1 AU/ml. Also, the “Clot formation / clotting time versus no additives” value in data set [2] is “extended the clotting time to only a minor degree”. The substance also registered a Clotting time in data set [2] (experiment 1, 0.01 mg/ml) of 19.2 min. In addition, the Clotting time in data set [2] (experiment 1, 0.1 mg/ml) worked out at 25.2 min. The same substance had a Clotting time in data set [2] (experiment 2, 0.01 mg/ml) of 11.3 min. In data set [2] (experiment 2, 0.1 mg/ml), this substance yielded a Clotting time of 25.8 min.

In the case of Native dextran, the “Complement activation and cytolytic complex deposition on the cells” value in data set [1] was “no such an effect”.

In the case of dextran sulfate, the “Effect of dextran sulfate alone on hyperglycemia” value in data set [4] is reported as “some beneficial effect in a few mice”. Moreover, the Lung survival entry in data set [5] is given as “about 200 min”.

“dextran sulfate [dextran sulfate (MW 8 000 Da)]”: the Blood concentration entry in data set [6] (continuous injection about 45 mg/hour for 2-3 weeks) is “approximately 0.01 mg/ml”. Moreover, in data set [6] (setting [7]), the Alopecia result was “reported in about half of the patients” and the Thrombocytopenia entry is “observed after 3 days treatment”.

In the case of “high molecular weight dextran [HMW-D, reference compound]”, in data set [2], the “Clot formation / clotting time versus no additives” value is listed as “extended the clotting time to only a minor degree”. For the same substance, the Clotting time in data set [2] (experiment 1, 0.01 mg/ml) worked out at 19.8 min; in data set [2] (experiment 1, 0.1 mg/ml), 14.2 min; in data set [2] (experiment 2, 0.01 mg/ml), 13.8 min; in data set [2] (experiment 2, 0.1 mg/ml), 33.2 min.

Values taken from patent US8906884B2, “Method of treating graft-rejection using dextran sulfate” (TX Medic AB, priority 2002, dated 2014).
